In patent US20090281049A1, “New use of ginsenoside compound-k in manufacturing medicaments” (priority 2006, published 2009):

Key:
[1] = test system: Adjuvant Arthritis in rats; test: Treatment effect on adjuvant induced adjuvant arthritis in rats; type: in vivo, Rat, SD strain
Experimental: Freund's Adjuvant Complete, purchased from Sigma Company, was injected into the plantar surface of the right hind paw by 0.1 ml in order to induce inflammation in rats.
Animals were firstly divided into large dose group: 10 mg/kg, iv, medium dose group: 5 mg/kg, iv, small dose group: 2.5 mg/kg, iv, Indomethacin group: 1 mg/kg, po, Tripterygium Wilfordii Hook group: 1.5 mg/kg, po. and blank control group: physiological saline 10 mg/kg, iv. The volume of the right hind paw of the rats was measured by using hydroplethismometer before inflammation induced. Then 0.1 ml Freund's Adjuvant Complete was injected into the plantar surface of the right hind paw in order to induce inflammation in rats. 20 days after inflammation induced, the rats were grouped by the foregoing division method and to be administered for 8 days. The volume of paw was measured in regular intervals. Swell rate and inhibition rate were calculated with the same method as the foregoing. Differences among groups were compared with t test.

[2] = test system: Collagen Type II (CII) induced arthritis in rats; test: Preventive effect on Collagen Type II (CII) induced arthritis in rats; type: in vivo, Rat, SD strain
Experimental: Inflammation-induced agent: Collagen Type II was dissolved in 0.1 mol/L acetic acid to make final concentration be 2 mg/ml collagen solution, and held in 4° C. overnight. The Collagen Type II solution was added to cold Freund's Adjuvant Incomplete by drops (Collagen Type II: Freund's Adjuvant Incomplete=1:1) on the next day, emulsified completely (Type II Collagen solution: Freund's Adjuvant Incomplete=1:1), and the final concentration of Collagen Type II was 1 mg/ml. The Collagen Type II emulsion was reserved in a refrigerator at 4° C.
Immune method: Each rat was immunized by being injected subcutaneously at 5 points on the back with 0.1 ml emulsion in each point, total of […] (contained 0.5 mg Collagen Type II), and immunized again in the same way 7 days later. An emulsion of 0.1 mol/L acetic acid and Freund's Adjuvant Incomplete was injected in control group. The swell values of the arthrosis in right hind ankle and foot were measured respectively by using a hydroplethismometer before injection and 20 days after immunization.
The Collagen Type II solution, which had been dissolved in acetic acid and held overnight, was adjusted to concentration 2 mg/ml, then added by drops slowly to Freund's Adjuvant Incomplete in proportion of 1:1. After the mixture was emulsified completely, each rat was injected subcutaneously at 5 points on the back with 0.1 ml emulsion in each point (total 0.5 ml in each rat, containing 0.5 mg Collagen Type II) for the first immunization. 7 days later, the second immunization was repeated in the same way.
The animals were divided into large dose group: Ginsenoside Compound-K, 10 mg/kg, iv, medium dose group: Ginsenoside Compound-K, 5 mg/kg, iv, small dose group: Ginsenoside Compound-K, 2.5 mg/kg, iv, Tripterygium Wilfordii Hook group: 1.5 mg/kg, po-, Enbrel group: 9 mg/kg, sc and blank control group: physiological saline 10 mg/kg, iv. The animals of administration groups were administered at the first immunization and stopped administering 8 days after the first immunization. The swell value of arthrosis in ankle and foot was measured by using hydroplethismometer before immunization and on day 20, 22, 24, 27 and 29 after the first immunization respectively. Swell rate and inhibition rate were calculated by the same method as the foregoing. Differences among groups were compared with t test. When the treatment finished, the arthroses in ankle and foot were taken for pathological examination.

[3] = mice, 360 mg/kg iv

SMILES: CC(C)=CCC[C@](C)(O[C@@H]1O[C@H](CO)[C@@H](O)[C@H](O)[C@H]1O)[C@H]1CC[C@]2(C)[C@@H]1[C@H](O)C[C@@H]1[C@@]3(C)CC[C@H](O)C(C)(C)[C@@H]3CC[C@]12C [Ginsenoside Compound-K, ginsenoside Compound-K]
- swell value ([1]; 2.5 mg/kg iv, 0 day): 1.06 ± 0.09 mL
- inhibition rate ([1]; 2.5 mg/kg iv, 19 day): <14.36> %
- swell rate ([1]; 2.5 mg/kg iv, 19 day): (84.26 ± 14.31) %
- swell value ([1]; 2.5 mg/kg iv, 19 day): 1.96 ± 0.16 mL
- inhibition rate ([1]; 2.5 mg/kg iv, 21 day): <15.81> %
- swell rate ([1]; 2.5 mg/kg iv, 21 day): (89.42 ± 18.47) %
- swell value ([1]; 2.5 mg/kg iv, 21 day): 2.00 ± 0.07 mL
- inhibition rate ([1]; 2.5 mg/kg iv, 23 day): <24.02> %
- swell rate ([1]; 2.5 mg/kg iv, 23 day): (80.92 ± 16.84) %
- swell value ([1]; 2.5 mg/kg iv, 23 day): 1.91 ± 0.08 mL
- inhibition rate ([1]; 2.5 mg/kg iv, 26 day): <27.71> %
- swell rate ([1]; 2.5 mg/kg iv, 26 day): (81.13 ± 10.03) %
- swell value ([1]; 2.5 mg/kg iv, 26 day): 1.92 ± 0.08 mL
- inhibition rate ([1]; 2.5 mg/kg iv, 30 day): <19.36> %
- swell rate ([1]; 2.5 mg/kg iv, 30 day): (84.80 ± 19.66) %
- swell value ([1]; 2.5 mg/kg iv, 30 day): 1.96 ± 0.16 mL
- swell value ([1]; 5 mg/kg iv, 0 day): 1.10 ± 0.09 mL
- inhibition rate ([1]; 5 mg/kg iv, 19 day): <17.31> %
- swell rate ([1]; 5 mg/kg iv, 19 day): (81.36 ± 13.10) %
- swell value ([1]; 5 mg/kg iv, 19 day): 2.00 ± 0.12 mL
- inhibition rate ([1]; 5 mg/kg iv, 21 day): <20.85> %
- swell rate ([1]; 5 mg/kg iv, 21 day): (84.07 ± 18.91) %
- swell value ([1]; 5 mg/kg iv, 21 day): 2.03 ± 0.20 mL
- inhibition rate ([1]; 5 mg/kg iv, 23 day): <23.19> %
- swell rate ([1]; 5 mg/kg iv, 23 day): (81.81 ± 14.58) %
- swell value ([1]; 5 mg/kg iv, 23 day): 2.01 ± 0.23 mL
- inhibition rate ([1]; 5 mg/kg iv, 26 day): <27.40> %
- swell rate ([1]; 5 mg/kg iv, 26 day): (81.48 ± 11.30) %
- swell value ([1]; 5 mg/kg iv, 26 day): 2.00 ± 0.19 mL
- inhibition rate ([1]; 5 mg/kg iv, 30 day): <20.33> %
- swell rate ([1]; 5 mg/kg iv, 30 day): (83.77 ± 17.65) %
- swell value ([1]; 5 mg/kg iv, 30 day): 2.03 ± 0.25 mL
- swell value ([1]; 10 mg/kg iv, 0 day): 1.05 ± 0.09 mL
- inhibition rate ([1]; 10 mg/kg iv, 19 day): <9.69> %
- swell rate ([1]; 10 mg/kg iv, 19 day): (88.85 ± 23.27) %
- swell value ([1]; 10 mg/kg iv, 19 day): 1.97 ± 0.24 mL
- inhibition rate ([1]; 10 mg/kg iv, 21 day): <31.57> %
- swell rate ([1]; 10 mg/kg iv, 21 day): (72.69 ± 29.97) %
- swell value ([1]; 10 mg/kg iv, 21 day): 1.81 ± 0.33 mL
- inhibition rate ([1]; 10 mg/kg iv, 23 day): <31.92> %
- swell rate ([1]; 10 mg/kg iv, 23 day): (72.50 ± 22.18) %
- swell value ([1]; 10 mg/kg iv, 23 day): 1.80 ± 0.21 mL
- inhibition rate ([1]; 10 mg/kg iv, 26 day): <36.15> %
- swell rate ([1]; 10 mg/kg iv, 26 day): (71.66 ± 24.46) %
- swell value ([1]; 10 mg/kg iv, 26 day): 1.79 ± 0.24 mL
- inhibition rate ([1]; 10 mg/kg iv, 30 day): <32.32> %
- swell rate ([1]; 10 mg/kg iv, 30 day): (71.17 ± 17.97) %
- swell value ([1]; 10 mg/kg iv, 30 day): 1.80 ± 0.26 mL
- overall treatment effect on Adjuvant Arthritis ([1]; rats, 10, 5, 2.5 mg/kg iv for 8 days from day 20): able to cure Adjuvant Arthritis in rats
- swell value ([2]; 2.5 mg/kg iv, 0 day): 1.09 ± 0.04 mL
- inhibition rate ([2]; 2.5 mg/kg iv, 20 day): <23.26> %
- swell rate ([2]; 2.5 mg/kg iv, 20 day): (40.29 ± 18.03) %
- swell value ([2]; 2.5 mg/kg iv, 20 day): 1.39 ± 0.24 mL
- inhibition rate ([2]; 2.5 mg/kg iv, 22 day): <24.39> %
- swell rate ([2]; 2.5 mg/kg iv, 22 day): (38.98 ± 18.96) %
- swell value ([2]; 2.5 mg/kg iv, 22 day): 1.38 ± 0.24 mL
- inhibition rate ([2]; 2.5 mg/kg iv, 24 day): <25.92> %
- swell rate ([2]; 2.5 mg/kg iv, 24 day): (38.92 ± 15.07) %
- swell value ([2]; 2.5 mg/kg iv, 24 day): 1.37 ± 0.24 mL
- inhibition rate ([2]; 2.5 mg/kg iv, 27 day): <27.08> %
- swell rate ([2]; 2.5 mg/kg iv, 27 day): (36.93 ± 13.02) %
- swell value ([2]; 2.5 mg/kg iv, 27 day): 1.35 ± 0.22 mL
- inhibition rate ([2]; 2.5 mg/kg iv, 29 day): <27.60> %
- swell rate ([2]; 2.5 mg/kg iv, 29 day): (31.75 ± 13.70) %
- swell value ([2]; 2.5 mg/kg iv, 29 day): 1.33 ± 0.17 mL
- swell value ([2]; 5 mg/kg iv, 0 day): 1.11 ± 0.06 mL
- inhibition rate ([2]; 5 mg/kg iv, 20 day): <29.01> %
- swell rate ([2]; 5 mg/kg iv, 20 day): (37.27 ± 15.30) %
- swell value ([2]; 5 mg/kg iv, 20 day): 1.43 ± 0.23 mL
- inhibition rate ([2]; 5 mg/kg iv, 22 day): <32.11> %
- swell rate ([2]; 5 mg/kg iv, 22 day): (35.00 ± 15.12) %
- swell value ([2]; 5 mg/kg iv, 22 day): 1.41 ± 0.22 mL
- inhibition rate ([2]; 5 mg/kg iv, 24 day): <31.56> %
- swell rate ([2]; 5 mg/kg iv, 24 day): (35.95 ± 11.21) %
- swell value ([2]; 5 mg/kg iv, 24 day): 1.45 ± 0.17 mL
- inhibition rate ([2]; 5 mg/kg iv, 27 day): <31.57> %
- swell rate ([2]; 5 mg/kg iv, 27 day): (34.66 ± 13.01) %
- swell value ([2]; 5 mg/kg iv, 27 day): 1.41 ± 0.23 mL
- inhibition rate ([2]; 5 mg/kg iv, 29 day): <29.04> %
- swell rate ([2]; 5 mg/kg iv, 29 day): (31.12 ± 13.81) %
- swell value ([2]; 5 mg/kg iv, 29 day): 1.39 ± 0.18 mL
- swell value ([2]; 10 mg/kg iv, 0 day): 1.08 ± 0.07 mL
- inhibition rate ([2]; 10 mg/kg iv, 20 day): <32.97> %
- swell rate ([2]; 10 mg/kg iv, 20 day): (35.19 ± 19.75) %
- swell value ([2]; 10 mg/kg iv, 20 day): 1.37 ± 0.26 mL
- inhibition rate ([2]; 10 mg/kg iv, 22 day): <47.51> %
- swell rate ([2]; 10 mg/kg iv, 22 day): (27.06 ± 19.03) %
- swell value ([2]; 10 mg/kg iv, 22 day): 1.30 ± 0.23 mL
- inhibition rate ([2]; 10 mg/kg iv, 24 day): <48.29> %
- swell rate ([2]; 10 mg/kg iv, 24 day): (27.16 ± 16.39) %
- swell value ([2]; 10 mg/kg iv, 24 day): 1.31 ± 0.21 mL
- inhibition rate ([2]; 10 mg/kg iv, 27 day): <44.61> %
- swell rate ([2]; 10 mg/kg iv, 27 day): (28.05 ± 14.52) %
- swell value ([2]; 10 mg/kg iv, 27 day): 1.32 ± 0.19 mL
- inhibition rate ([2]; 10 mg/kg iv, 29 day): <34.19> %
- swell rate ([2]; 10 mg/kg iv, 29 day): (28.86 ± 19.06) %
- swell value ([2]; 10 mg/kg iv, 29 day): 1.32 ± 0.23 mL
- overall preventive effect on Collagen Type II induced arthritis ([2]; rats, 10, 5, 2.5 mg/kg iv): able to prevent Collagen Type II induced arthritis
- behaviour after intravenous injection [3]: their act was normal and no behavior out of the way was observed
